Results published in publication PMC6199744, “Development of Chemical Proteomics for the Folateome and Analysis of the Kinetoplastid Folateome” (ACS Infectious Diseases, 2018).
Like-named read-outs stand apart in the source and are kept apart here.

Tests used:
Assay type in all cases: binding
[1] = molecular target: T1, HeLa cell extract proteins (Homo sapiens, UniProt Q9H903)
T1 construct: endogenous in cells; host or cells: HeLa cell extract
T1 sequence (Q9H903 1-347): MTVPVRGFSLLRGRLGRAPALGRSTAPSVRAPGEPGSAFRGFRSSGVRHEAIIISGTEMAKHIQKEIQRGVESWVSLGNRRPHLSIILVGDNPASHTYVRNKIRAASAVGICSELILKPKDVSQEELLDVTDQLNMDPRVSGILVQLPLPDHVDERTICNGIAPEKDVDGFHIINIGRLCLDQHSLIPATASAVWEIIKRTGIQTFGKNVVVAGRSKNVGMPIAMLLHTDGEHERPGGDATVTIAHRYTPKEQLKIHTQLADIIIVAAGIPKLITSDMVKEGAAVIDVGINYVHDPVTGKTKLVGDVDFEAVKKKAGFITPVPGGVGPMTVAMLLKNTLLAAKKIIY

[2] = molecular target: T2, HeLa cell extract proteins (Homo sapiens, UniProt P28066)
T2 construct: endogenous in cells; host or cells: HeLa cell extract
T2 sequence (P28066 1-241): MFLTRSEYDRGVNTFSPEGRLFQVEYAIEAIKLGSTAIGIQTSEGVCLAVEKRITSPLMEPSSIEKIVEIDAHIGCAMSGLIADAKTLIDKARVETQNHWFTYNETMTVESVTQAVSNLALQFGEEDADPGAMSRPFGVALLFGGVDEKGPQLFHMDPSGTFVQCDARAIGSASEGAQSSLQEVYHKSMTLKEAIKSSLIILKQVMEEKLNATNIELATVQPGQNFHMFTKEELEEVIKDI

[3] = molecular target: T3, HeLa cell extract proteins (Homo sapiens, UniProt P00367)
T3 construct: endogenous in cells; host or cells: HeLa cell extract

[4] = molecular target: T4, HeLa cell extract proteins (Homo sapiens, UniProt O00764)
T4 construct: endogenous in cells; host or cells: HeLa cell extract
T4 sequence (O00764 1-312): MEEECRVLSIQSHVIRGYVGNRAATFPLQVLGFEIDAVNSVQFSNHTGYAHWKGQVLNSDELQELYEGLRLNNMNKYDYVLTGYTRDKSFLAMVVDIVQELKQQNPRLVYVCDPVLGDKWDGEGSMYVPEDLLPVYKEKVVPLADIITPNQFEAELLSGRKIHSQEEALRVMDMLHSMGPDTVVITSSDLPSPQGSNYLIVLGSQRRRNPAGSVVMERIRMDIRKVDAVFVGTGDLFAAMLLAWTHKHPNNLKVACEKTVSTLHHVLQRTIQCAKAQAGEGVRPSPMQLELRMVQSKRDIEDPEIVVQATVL

[5] = molecular target: T5, HeLa cell extract proteins (Homo sapiens, UniProt P78371)
T5 construct: endogenous in cells; host or cells: HeLa cell extract
T5 sequence (P78371 1-535): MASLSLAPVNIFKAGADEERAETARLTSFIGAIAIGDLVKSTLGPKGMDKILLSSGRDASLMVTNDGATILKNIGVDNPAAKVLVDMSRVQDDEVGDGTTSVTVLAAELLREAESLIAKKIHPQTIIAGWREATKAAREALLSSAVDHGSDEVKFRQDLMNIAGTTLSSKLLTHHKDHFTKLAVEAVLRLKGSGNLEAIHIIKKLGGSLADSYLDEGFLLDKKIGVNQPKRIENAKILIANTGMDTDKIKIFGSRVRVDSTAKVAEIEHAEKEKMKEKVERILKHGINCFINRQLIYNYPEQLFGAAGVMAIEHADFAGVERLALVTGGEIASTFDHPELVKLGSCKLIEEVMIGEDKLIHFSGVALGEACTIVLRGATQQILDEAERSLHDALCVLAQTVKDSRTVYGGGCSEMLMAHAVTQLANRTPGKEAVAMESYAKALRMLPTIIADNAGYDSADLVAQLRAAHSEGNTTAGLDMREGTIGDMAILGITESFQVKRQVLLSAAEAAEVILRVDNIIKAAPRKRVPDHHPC

[6] = molecular target: T6, HeLa cell extract proteins (Homo sapiens, UniProt Q9UII2)
T6 construct: endogenous in cells; host or cells: HeLa cell extract
T6 sequence (Q9UII2 26-106): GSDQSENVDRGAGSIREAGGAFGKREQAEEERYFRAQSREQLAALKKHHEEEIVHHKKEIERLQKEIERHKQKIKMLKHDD

[7] = molecular target: T7, HeLa cell extract proteins (Homo sapiens, UniProt Q15293)
T7 construct: endogenous in cells; host or cells: HeLa cell extract
T7 sequence (Q15293 30-331): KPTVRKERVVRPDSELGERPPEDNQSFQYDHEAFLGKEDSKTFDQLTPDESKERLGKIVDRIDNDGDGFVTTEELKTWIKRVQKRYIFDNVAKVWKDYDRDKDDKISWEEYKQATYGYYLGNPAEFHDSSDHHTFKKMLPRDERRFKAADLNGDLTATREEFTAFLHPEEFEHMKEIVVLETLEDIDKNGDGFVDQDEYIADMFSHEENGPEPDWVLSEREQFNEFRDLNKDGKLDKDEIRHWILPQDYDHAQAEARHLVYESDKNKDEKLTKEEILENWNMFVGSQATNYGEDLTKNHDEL

[8] = molecular target: T8, HeLa cell extract proteins (Homo sapiens, UniProt P24534)
T8 construct: endogenous in cells; host or cells: HeLa cell extract
T8 sequence (P24534 1-225): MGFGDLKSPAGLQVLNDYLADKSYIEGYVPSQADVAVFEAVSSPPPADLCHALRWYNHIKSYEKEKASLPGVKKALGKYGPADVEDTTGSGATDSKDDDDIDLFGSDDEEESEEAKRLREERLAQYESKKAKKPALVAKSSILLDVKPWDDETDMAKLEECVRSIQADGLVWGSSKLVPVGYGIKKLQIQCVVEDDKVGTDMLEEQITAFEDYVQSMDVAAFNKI

[9] = molecular target: T9, HeLa cell extract proteins (Homo sapiens, UniProt Q8NEW0)
T9 construct: endogenous in cells; host or cells: HeLa cell extract
T9 sequence (Q8NEW0 1-376): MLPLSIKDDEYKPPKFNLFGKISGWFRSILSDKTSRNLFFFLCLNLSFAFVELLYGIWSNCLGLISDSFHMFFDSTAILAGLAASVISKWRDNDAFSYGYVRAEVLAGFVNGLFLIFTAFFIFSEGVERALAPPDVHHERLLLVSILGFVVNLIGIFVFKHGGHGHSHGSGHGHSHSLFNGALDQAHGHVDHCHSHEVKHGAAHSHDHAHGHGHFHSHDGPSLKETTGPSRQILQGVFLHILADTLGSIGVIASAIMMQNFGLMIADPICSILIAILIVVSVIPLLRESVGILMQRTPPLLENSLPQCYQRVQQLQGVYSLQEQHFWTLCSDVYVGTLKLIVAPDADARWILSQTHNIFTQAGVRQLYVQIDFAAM

[10] = HeLa, protein SLC30A7 (SOLUTE CARRIER FAMILY 30 MEMBER 7)

T3 sequence (P00367 54-558): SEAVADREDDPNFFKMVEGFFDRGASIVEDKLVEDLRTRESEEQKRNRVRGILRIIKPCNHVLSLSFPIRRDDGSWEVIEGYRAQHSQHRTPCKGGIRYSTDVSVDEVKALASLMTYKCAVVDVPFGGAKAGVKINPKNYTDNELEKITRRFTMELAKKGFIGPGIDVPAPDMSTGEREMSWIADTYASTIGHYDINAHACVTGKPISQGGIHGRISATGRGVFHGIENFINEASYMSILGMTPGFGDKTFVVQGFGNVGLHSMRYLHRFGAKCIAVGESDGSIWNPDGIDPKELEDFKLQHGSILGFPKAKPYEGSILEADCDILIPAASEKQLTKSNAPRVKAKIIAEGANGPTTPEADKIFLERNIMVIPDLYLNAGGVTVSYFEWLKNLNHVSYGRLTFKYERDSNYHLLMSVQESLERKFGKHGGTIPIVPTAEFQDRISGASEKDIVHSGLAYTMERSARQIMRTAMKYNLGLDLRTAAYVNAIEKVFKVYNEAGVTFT

| Compound | fold changes relative to vehicle control ([1]; HeLa, protein MTHFD2L) | fold changes relative to vehicle control ([2]; HeLa, protein PSMA5) | fold changes relative to vehicle control ([3]; protein GLUD1, HeLa) | fold changes relative to vehicle control ([4]; HeLa, protein PDXK) | fold changes relative to vehicle control ([5]; protein CCT2, HeLa) | fold changes relative to vehicle control ([6]; protein ATPIF1, HeLa) | fold changes relative to vehicle control ([7]; captured protein RCN1, HeLa) | fold changes relative to vehicle control ([8]; protein EEF1B2, HeLa) | fold changes relative to vehicle control ([9]; HeLa, protein SLC30A7) | fold changes relative to vehicle control ([2]; HeLa, captured protein PSMA5) | fold changes relative to vehicle control ([3]; HeLa, protein GLUD1) | fold changes relative to vehicle control ([4]; protein PDXK, HeLa) | fold changes relative to vehicle control ([5]; HeLa, protein CCT2) | fold changes relative to vehicle control ([6]; HeLa, protein ATPIF1) | fold changes relative to vehicle control ([7]; HeLa, protein RCN1) | fold changes relative to vehicle control [9, 10] | further results |
| --- | --- | --- | --- | --- | --- | --- | --- | --- | --- | --- | --- | --- | --- | --- | --- | --- | --- |
| Nc1nc2cccc(-c3ccccc3)c2n1Cc1ccc(Cl)c(Cl)c1 [compound 3] | 1.07 | 1 | 0.92 | 0.9 | 1.13 | 0.91 | 0.89 | 1.02 | 1.07 |  |  |  |  |  |  |  |  |
| CCCCCCOc1ccc(Cc2cnc(N)nc2N)cc1 [compound 1] | 0.3 | 1.05 | 1.09 | 1.03 | 1.33 | 0.97 | 0.9 | 1.03 | 1.06 |  |  |  |  |  |  |  |  |
| NCCCNc1ccc(C(=O)NC(CCC(=O)O)C(=O)O)cc1 (stereo not drawn) [compound 7] | 1 |  |  |  |  |  |  | 0.87 |  | 0.99 | 0.97 | 1.03 | 0.95 | 1.41 | 1.02 | 1 |  |
| CCCCCCOc1cccc(Cc2cnc(N)nc2N)c1 [compound 2] | 0.89 | 1.19 | 1.33 | 0.97 | 1.75 | 1.32 | 1.05 | 1.63 | 1 |  |  |  |  |  |  |  |  |
| NCCOCCOCC(=O)Nc1nc2ncc(CNc3ccc(C(=O)NC(CCC(=O)O)C(=O)O)cc3)nc2c(=O)[nH]1 (stereo not drawn) [compound 6] | 0.97 |  |  |  |  |  |  | 1.07 |  | 1.08 | 1.07 | 0.87 | 1.23 | 1.91 | 1.11 | 0.94 |  |
| Nc1nc2[nH]cc(CCc3ccc(C(=O)N[C@@H](CCC(=O)O)C(=O)O)cc3)c2c(=O)[nH]1 [PTX, pemetrexed] |  |  |  |  |  |  |  |  |  |  |  |  |  |  |  |  | fold changes relative to vehicle control [1]: 0.9; fold changes relative to vehicle control [2]: 1.04; fold changes relative to vehicle control [3]: 1.01; fold changes relative to vehicle control [4]: 0.83; fold changes relative to vehicle control [5]: 1.11; fold changes relative to vehicle control [6]: 1.84; fold changes relative to vehicle control [7]: 1.02; fold changes relative to vehicle control [8]: 1; fold changes relative to vehicle control [9]: 0.97 |
| Nc1nc2c(c(=O)[nH]1)N(C=O)C(CNc1ccc(C(=O)N[C@@H](CCC(=O)O)C(=O)O)cc1)CN2 (stereo partly drawn) [LEU, leucovorin] | 0.9 |  |  |  |  |  |  | 0.84 |  | 1.03 | 1.06 | 1.09 | 1.05 | 1 | 0.91 | 1.06 |  |
